Data on one compound can be found in publication PMC8426237, “A first-in-human phase I study of TAS0728, an oral covalent binding inhibitor of HER2, in patients with advanced solid tumors with HER2 or HER3 aberrations” (Investigational New Drugs, 2021).

For data set [1] the following is noted: human, in vivo.
Procedure: A DLT was defined as a study treatment-related adverse event (TRAE), according to the Common Terminology Criteria for Adverse Events (CTCAE, Version 5.0), with qualifying criteria for certain DLTs (e.g., Grade ≥ 3 diarrhea, was included as a DLT only if lasting >48 h and unresponsive to intensive antidiarrheal medication).
Patients were closely monitored for these potential toxicities during the current study. Safety assessments included recording of AEs and serious AEs (SAEs) from the time of signing the study informed consent form to 30 days after the last dose of study medication. Safety parameters including laboratory evaluations (hematology, coagulation, chemistry, and urinalysis), vital sign measurements and body weight, electrocardiogram (ECG) recordings, ECOG performance status, echocardiogram or multi-gated acquisition (MUGA), and physical examination were assessed at screening, during the study and at 30 days following the last dose. The use of concomitant medications was permitted and details for such medications were recorded.
For data set [2], the system named is xenograft models of tumors with acquired resistance to trastuzumab/pertuzumab or to T-DM1. Further details: method as in PMID 32248641. The conditions noted are these: cited from earlier work.
On the set-up of data set [3]: method as in PMID 30787176. The following applies: efficacious doses in mouse models; cited from earlier work.

`C=CC(=O)N1CCC[C@@H](n2nc(C(=O)Nc3ccc(CC(=O)N(C)C)c(C)c3C)c3c(N)ncnc32)C1` [TAS0728]: the “Patients with urinary tract infection” value in data set [1] turned out to be 28.6%. Further, in data set [2], the Anti-tumor effect entry is “significant anti-tumor effects”. Further, the Diarrhea during treatment result in data set [3] is recorded as “did not induce diarrhea”.
